Data reported in patent publication US8765940B2 (priority 2009, dated 2014).

target: PI3Kδ (Homo sapiens (Human), UniProt O00329); assay type: biochemical; settings: PI3Kδ Alphascreen assay
Sequence (O00329 whole entry): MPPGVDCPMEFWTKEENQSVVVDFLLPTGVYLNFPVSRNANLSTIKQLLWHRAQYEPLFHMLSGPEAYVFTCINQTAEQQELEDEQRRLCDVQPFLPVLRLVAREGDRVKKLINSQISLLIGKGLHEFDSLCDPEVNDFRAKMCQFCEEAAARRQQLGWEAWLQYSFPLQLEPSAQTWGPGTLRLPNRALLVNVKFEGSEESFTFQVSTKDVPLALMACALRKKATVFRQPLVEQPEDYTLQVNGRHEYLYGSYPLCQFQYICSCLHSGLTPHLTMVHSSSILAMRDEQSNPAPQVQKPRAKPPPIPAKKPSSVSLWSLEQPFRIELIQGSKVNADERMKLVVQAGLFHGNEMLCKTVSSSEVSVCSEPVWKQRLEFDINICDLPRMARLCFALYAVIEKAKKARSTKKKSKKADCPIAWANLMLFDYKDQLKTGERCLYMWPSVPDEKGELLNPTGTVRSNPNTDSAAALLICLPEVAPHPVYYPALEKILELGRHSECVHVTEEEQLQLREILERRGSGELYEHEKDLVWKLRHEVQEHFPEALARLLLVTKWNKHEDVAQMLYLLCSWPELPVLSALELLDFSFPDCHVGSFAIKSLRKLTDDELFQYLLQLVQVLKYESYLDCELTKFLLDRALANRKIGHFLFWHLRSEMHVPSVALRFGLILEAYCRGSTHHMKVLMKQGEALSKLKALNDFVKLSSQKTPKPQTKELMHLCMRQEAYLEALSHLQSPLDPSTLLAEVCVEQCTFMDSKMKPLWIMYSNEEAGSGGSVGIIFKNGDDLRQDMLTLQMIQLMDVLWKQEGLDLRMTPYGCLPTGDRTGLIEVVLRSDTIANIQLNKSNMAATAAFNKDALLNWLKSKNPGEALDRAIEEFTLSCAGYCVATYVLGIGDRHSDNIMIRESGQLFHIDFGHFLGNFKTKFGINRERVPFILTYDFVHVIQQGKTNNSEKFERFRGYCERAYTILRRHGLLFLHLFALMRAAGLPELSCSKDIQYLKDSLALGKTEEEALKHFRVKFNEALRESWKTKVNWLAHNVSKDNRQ
Sequence (P27986 whole entry partner): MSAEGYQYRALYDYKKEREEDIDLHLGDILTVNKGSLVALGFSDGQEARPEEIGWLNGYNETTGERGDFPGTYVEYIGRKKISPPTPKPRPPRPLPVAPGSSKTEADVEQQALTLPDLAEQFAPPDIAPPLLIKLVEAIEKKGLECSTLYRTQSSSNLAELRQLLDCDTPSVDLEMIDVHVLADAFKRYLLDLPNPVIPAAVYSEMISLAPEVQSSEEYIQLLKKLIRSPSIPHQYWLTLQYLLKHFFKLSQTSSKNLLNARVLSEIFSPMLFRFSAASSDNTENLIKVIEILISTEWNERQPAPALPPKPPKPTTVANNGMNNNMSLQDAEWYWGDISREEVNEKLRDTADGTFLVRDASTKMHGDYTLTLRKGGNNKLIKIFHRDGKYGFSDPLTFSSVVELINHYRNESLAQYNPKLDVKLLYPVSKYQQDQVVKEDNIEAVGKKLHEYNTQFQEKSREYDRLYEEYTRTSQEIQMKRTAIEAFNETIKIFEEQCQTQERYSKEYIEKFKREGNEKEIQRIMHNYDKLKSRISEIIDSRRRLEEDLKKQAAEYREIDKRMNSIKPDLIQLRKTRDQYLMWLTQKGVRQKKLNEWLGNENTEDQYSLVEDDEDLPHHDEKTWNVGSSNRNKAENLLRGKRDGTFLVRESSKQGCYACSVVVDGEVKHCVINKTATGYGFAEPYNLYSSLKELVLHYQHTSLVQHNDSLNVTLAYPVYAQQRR
Description: A PI3K Alphascreen® assay (PerkinElmer, Waltham, Mass.) was used to measure the activity of a panel of four phosphoinositide 3-kinases: PI3Kα, PI3Kβ, PI3Kγ, and PI3Kδ. Enzyme reaction buffer was prepared using sterile water (Baxter, Deerfield, Ill.) and 50 mM Tris HCl pH 7, 14 mM MgCl2, 2 mM sodium cholate, and 100 mM NaCl. 2 mM DTT was added fresh the day of the experiment. The Alphascreen buffer was made using sterile water and 10 mM Tris HCl pH 7.5, 150 mM NaCl, 0.10% Tween 20, and 30 mM EDTA. 1 mM DTT was added fresh the day of the experiment. Compound source plates used for this assay were 384-well Greiner clear polypropylene plates containing test compounds at 5 mM and diluted 1:2 over 22 concentrations. Columns 23 and 24 contained only DMSO as these wells comprised the positive and negative controls, respectively. Source plates were replicated by transferring 0.5 uL per well into 384-well Optiplates (PerkinElmer, Waltham, Mass.).
Each PI3K isoform was diluted in enzyme reaction buffer to 2× working stocks. PI3Kα was diluted to 1.6 nM, PI3Kβ was diluted to 0.8 nM, PI3Kγ was diluted to 15 nM, and PI3Kδ was diluted to 1.6 nM. PI(4,5)P2 (Echelon Biosciences, Salt Lake City, Utah) was diluted to 10 μM and ATP was diluted to 20 μM. This 2× stock was used in the assays for PI3Kα and PI3Kβ. For assay of PI3Kγ and PI3Kδ, PI(4,5)P2 was diluted to 10 μM and ATP was diluted to 8 μM to prepare a similar 2× working stock. Alphascreen reaction solutions were made using beads from the anti-GST Alphascreen kit (PerkinElmer, Waltham, Mass.). Two 4× working stocks of the Alphascreen reagents were made in Alphascreen reaction buffer. In one stock, biotinylated-IP4 (Echelon Biosciences, Salt Lake City, Utah) was diluted to 40 nM and streptavadin-donor beads were diluted to 80 μg/mL. In the second stock, PIP3-binding protein (Echelon Biosciences, Salt Lake City, Utah) was diluted to 40 nM and anti-GST-acceptor beads were diluted to 80 μg/mL.
Using a 384-well Multidrop (Titertek, Huntsville, Ala.), 10 μL/well of 2× enzyme stock was added to columns 1-24 of the assay plates for each isoform. 10 μL/well of the appropriate substrate 2× stock (containing 20 μM ATP for the PI3Kα and β assays and containing 8 μM ATP for the PI3Kγ and δ assays) was then added to Columns 1-24 of all plates. Plates were then incubated at room temperature for 20 minutes. In the dark, 10 μL/well of the donor bead solution was added to columns 1-24 of the plates to quench the enzyme reaction. The plates were incubated at room temperature for 30 minutes. Still in the dark, 10 μL/well of the acceptor bead solution was added to columns 1-24 of the plates. The plates were then incubated in the dark for 1.5 hours. The plates were read on an Envision multimode Plate Reader (PerkinElmer, Waltham, Mass.) using a 680 nm excitation filter and a 520-620 nm emission filter.

**Q.** How did the Ki turn out when `Cc1c(-c2ccc3c(ccn3C)c2)nc2cc(F)cc(F)c2c1N1CC(C)(C)c2ncc(N3CCOCC3)cc21` [4-(3,3-dimethyl-6-(4-morpholinyl)-2,3-dihydro-1H-pyrrolo[3,2-b]pyridin-1-yl)-5,7-difluoro-3-methyl-2-(1-methyl-1H-indol-5-yl)quinoline] was run?
**A.** 195 nM

**Q.** Which Ki does the source give for `Cc1c(-c2cccc3ccccc23)nc2cc(F)cc(F)c2c1N1CC(C)(C)c2ncc(N3CCOCC3)cc21` [4-(3,3-dimethyl-6-(4-morpholinyl)-2,3-dihydro-1H-pyrrolo[3,2-b]pyridin-1-yl)-5,7-difluoro-3-methyl-2-(1-naphthalenyl)quinoline] here?
**A.** 230 nM

**Q.** For `Cc1c(C2(c3ccccc3)CC2)nc2cc(F)cc(F)c2c1N1CC(C)(C)c2ncc(N3CCOCC3)cc21` [4-(3,3-dimethyl-6-(4-morpholinyl)-2,3-dihydro-1H-pyrrolo[3,2-b]pyridin-1-yl)-5,7-difluoro-3-methyl-2-(1-phenylcyclopropyl)quinoline], which Ki is on record?
**A.** 21.8 nM

**Q.** With `C=C(c1ccccc1)c1nc2cc(F)cc(F)c2c(N2CC(C)(C)c3ncc(N4CCOCC4)cc32)c1C` [4-(3,3-dimethyl-6-(4-morpholinyl)-2,3-dihydro-1H-pyrrolo[3,2-b]pyridin-1-yl)-5,7-difluoro-3-methyl-2-(1-phenylethenyl)quinoline] as the compound, how does the Ki read?
**A.** 2.9 nM

**Q.** `Cc1c(CCc2ccccc2)nc2cc(F)cc(F)c2c1N1CC(C)(C)c2ncc(N3CCOCC3)cc21` [4-(3,3-dimethyl-6-(4-morpholinyl)-2,3-dihydro-1H-pyrrolo[3,2-b]pyridin-1-yl)-5,7-difluoro-3-methyl-2-(2-phenylethyl)quinoline] was tested. Which Ki did it give?
**A.** 8.12 nM

**Q.** With `Cc1c(Cc2cccc(C(F)(F)F)c2)nc2cc(F)cc(F)c2c1N1CC(C)(C)c2ncc(N3CCOCC3)cc21` [4-(3,3-dimethyl-6-(4-morpholinyl)-2,3-dihydro-1H-pyrrolo[3,2-b]pyridin-1-yl)-5,7-difluoro-3-methyl-2-(3-(trifluoromethyl)benzyl)quinoline] as the compound, how does the Ki read?
**A.** 17.3 nM

**Q.** `Cc1ccnc(-c2nc3cc(F)cc(F)c3c(N3CC(C)(C)c4ncc(N5CCOCC5)cc43)c2C)c1` [4-(3,3-dimethyl-6-(4-morpholinyl)-2,3-dihydro-1H-pyrrolo[3,2-b]pyridin-1-yl)-5,7-difluoro-3-methyl-2-(4-methyl-2-pyridinyl)quinoline] was tested. Which Ki did it give?
**A.** 18.4 nM

**Q.** `Cc1c(-c2cncc(S(C)(=O)=O)c2)nc2cc(F)cc(F)c2c1N1CC(C)(C)c2ncc(N3CCOCC3)cc21` [4-(3,3-dimethyl-6-(4-morpholinyl)-2,3-dihydro-1H-pyrrolo[3,2-b]pyridin-1-yl)-5,7-difluoro-3-methyl-2-(5-(methylsulfonyl)-3-pyridinyl)quinoline] was tested. Which Ki did it give?
**A.** 16.7 nM

**Q.** For `Cc1cncc(-c2nc3cc(F)cc(F)c3c(N3CC(C)(C)c4ncc(N5CCOCC5)cc43)c2C)c1` [4-(3,3-dimethyl-6-(4-morpholinyl)-2,3-dihydro-1H-pyrrolo[3,2-b]pyridin-1-yl)-5,7-difluoro-3-methyl-2-(5-methyl-3-pyridinyl)quinoline], which Ki is on record?
**A.** 3 nM

**Q.** Which Ki does the source give for `Cc1c(/C=C/c2ccccc2)nc2cc(F)cc(F)c2c1N1CC(C)(C)c2ncc(N3CCOCC3)cc21` [4-(3,3-dimethyl-6-(4-morpholinyl)-2,3-dihydro-1H-pyrrolo[3,2-b]pyridin-1-yl)-5,7-difluoro-3-methyl-2-((E)-2-phenylethenyl)quinoline] here?
**A.** 88.3 nM

**Q.** Which Ki does the source give for `Cc1c(-c2ccccn2)nc2c(C)ccc(F)c2c1N1CC(C)(C)c2ncc(N3CCOCC3)cc21` [4-(3,3-dimethyl-6-(4-morpholinyl)-2,3-dihydro-1H-pyrrolo[3,2-b]pyridin-1-yl)-5-fluoro-3,8-dimethyl-2-(2-pyridinyl)quinoline] here?
**A.** 4.07 nM

**Q.** For `Cc1c(-c2ccccn2)nc2cccc(F)c2c1N1CC(C)(C)c2ncc(N3CCOCC3)cc21` [4-(3,3-dimethyl-6-(4-morpholinyl)-2,3-dihydro-1H-pyrrolo[3,2-b]pyridin-1-yl)-5-fluoro-3-methyl-2-(2-pyridinyl)quinoline], which Ki is on record?
**A.** 3.33 nM

**Q.** For `CC1(C)CN(c2c(C#N)c(-c3ccccn3)nc3cc(F)ccc23)c2cc(N3CCOCC3)cnc21` [4-(3,3-dimethyl-6-(4-morpholinyl)-2,3-dihydro-1H-pyrrolo[3,2-b]pyridin-1-yl)-7-fluoro-2-(2-pyridinyl)-3-quinolinecarbonitrile], which Ki is on record?
**A.** 437 nM

**Q.** With `CC(C)c1c(-c2ccccn2)nc2cc(F)ccc2c1N1CC(C)(C)c2ncc(N3CCOCC3)cc21` [4-(3,3-dimethyl-6-(4-morpholinyl)-2,3-dihydro-1H-pyrrolo[3,2-b]pyridin-1-yl)-7-fluoro-3-(1-methylethyl)-2-(2-pyridinyl)quinoline] as the compound, how does the Ki read?
**A.** 5.87 nM

**Q.** For `Cc1c(-c2ccccc2S(C)(=O)=O)nc2cc(F)ccc2c1N1CC(C)(C)c2ncc(N3CCOCC3)cc21` [4-(3,3-dimethyl-6-(4-morpholinyl)-2,3-dihydro-1H-pyrrolo[3,2-b]pyridin-1-yl)-7-fluoro-3-methyl-2-(2-(methylsulfonyl)phenyl)quinoline], which Ki is on record?
**A.** 7.8 nM

**Q.** For `Cc1ncccc1-c1nc2cc(F)ccc2c(N2CC(C)(C)c3ncc(N4CCOCC4)cc32)c1C` [4-(3,3-dimethyl-6-(4-morpholinyl)-2,3-dihydro-1H-pyrrolo[3,2-b]pyridin-1-yl)-7-fluoro-3-methyl-2-(2-methyl-3-pyridinyl)quinoline], which Ki is on record?
**A.** 4.07 nM

**Q.** How did the Ki turn out when `Cc1c(-c2ccccn2)nc2cc(F)ccc2c1N1CC(C)(C)c2ncc(N3CCOCC3)cc21` [4-(3,3-dimethyl-6-(4-morpholinyl)-2,3-dihydro-1H-pyrrolo[3,2-b]pyridin-1-yl)-7-fluoro-3-methyl-2-(2-pyridinyl)quinoline] was run?
**A.** 6.76 nM

**Q.** How did the Ki turn out when `Cc1ccnc(-c2nc3cc(F)ccc3c(N3CC(C)(C)c4ncc(N5CCOCC5)cc43)c2C)c1` [4-(3,3-dimethyl-6-(4-morpholinyl)-2,3-dihydro-1H-pyrrolo[3,2-b]pyridin-1-yl)-7-fluoro-3-methyl-2-(4-methyl-2-pyridinyl)quinoline] was run?
**A.** 4.17 nM

**Q.** How did the Ki turn out when `Cc1c(Nc2ccccn2)nc2cc(F)cc(F)c2c1N1CC(C)(C)c2ncc(N3CCOCC3)cc21` [4-(3,3-dimethyl-6-morpholino-2,3-dihydro-1H-pyrrolo[3,2-b]pyridin-1-yl)-5,7-difluoro-3-methyl-N-(pyridin-2-yl)quinolin-2-amine] was run?
**A.** 17.1 nM

**Q.** Which Ki does the source give for `Cc1c(-c2ccccn2)nc2ncccc2c1N1CCOc2ccc(N3CCOCC3)cc21` [4-(3-methyl-2-(2-pyridinyl)-1,8-naphthyridin-4-yl)-6-(4-morpholinyl)-3,4-dihydro-2H-1,4-benzoxazine] here?
**A.** 883 nM

**Q.** How did the Ki turn out when `Cc1c(-c2ccccn2)nc2cc(F)ccc2c1N1CC(C)(C)c2nc(Br)c(N3CCOCC3)cc21` [4-(5-bromo-3,3-dimethyl-6-(4-morpholinyl)-2,3-dihydro-1H-pyrrolo[3,2-b]pyridin-1-yl)-7-fluoro-3-methyl-2-(2-pyridinyl)quinoline] was run?
**A.** 33.3 nM

**Q.** `Cc1ccnc(-c2nc3ncccc3c(N3CC(C)(C)c4nc(Cl)c(N5CCOCC5)cc43)c2C)c1` [4-(5-chloro-3,3-dimethyl-6-(4-morpholinyl)-2,3-dihydro-1H-pyrrolo[3,2-b]pyridin-1-yl)-3-methyl-2-(4-methyl-2-pyridinyl)-1,8-naphthyridine] was tested. Which Ki did it give?
**A.** 68.7 nM

**Q.** With `Cc1c(-c2ccccn2)nc2cc(F)ccc2c1N1CC(C)(C)c2nc(Cl)c(N3CCOCC3)cc21` [4-(5-chloro-3,3-dimethyl-6-(4-morpholinyl)-2,3-dihydro-1H-pyrrolo[3,2-b]pyridin-1-yl)-7-fluoro-3-methyl-2-(2-pyridinyl)quinoline] as the compound, how does the Ki read?
**A.** 3.16 nM

**Q.** How did the Ki turn out when `Cc1c(-c2ccccc2F)nc2cccc(F)c2c1N1CCS(=O)(=O)c2ccc(N3CCOCC3)cc21` [4-(5-fluoro-2-(2-fluorophenyl)-3-methyl-4-quinolinyl)-6-(4-morpholinyl)-3,4-dihydro-2H-1,4-benzothiazine 1,1-dioxide] was run?
**A.** 23.5 nM

**Q.** Which Ki does the source give for `Cc1c(-c2ccccn2)nc2cc(F)ccc2c1N1CC(C)(C)c2ncc(C3=CCOCC3)cc21` [4-(6-(3,6-dihydro-2H-pyran-4-yl)-3,3-dimethyl-2,3-dihydro-1H-pyrrolo[3,2-b]pyridin-1-yl)-7-fluoro-3-methyl-2-(2-pyridinyl)quinoline] here?
**A.** 6.47 nM

**Q.** Which Ki does the source give for `Cc1nc2ccc(Cl)cc2c(N2CCOc3ccc(N4CCOCC4)cc32)c1C` [4-(6-chloro-2,3-dimethyl-4-quinolinyl)-6-(4-morpholinyl)-3,4-dihydro-2H-1,4-benzoxazine] here?
**A.** 1260 nM

**Q.** How did the Ki turn out when `COc1cc2nc(C)c(C)c(N3CCS(=O)(=O)c4ccc(N5CCOCC5)cc43)c2cc1Cl` [4-(6-chloro-7-methoxy-2,3-dimethyl-4-quinolinyl)-6-(4-morpholinyl)-3,4-dihydro-2H-1,4-benzothiazine 1,1-dioxide] was run?
**A.** 28 nM

**Q.** How did the Ki turn out when `Cc1c(-c2ccccn2)nc2cc(F)ccc2c1N1CCOc2ccc(N3CCOCC3)cc21` [4-(7-fluoro-3-methyl-2-(2-pyridinyl)-4-quinolinyl)-6-(4-morpholinyl)-3,4-dihydro-2H-1,4-benzoxazine] was run?
**A.** 351 nM

**Q.** How did the Ki turn out when `Cc1c(-c2ccccn2)nc2cc(F)ccc2c1N1CC(C)(C)c2ccc(-c3nc(N)ncc3Cl)cc21` [5-chloro-4-(1-(7-fluoro-3-methyl-2-(2-pyridinyl)-4-quinolinyl)-3,3-dimethyl-2,3-dihydro-1H-indol-6-yl)-2-pyrimidinamine] was run?
**A.** 1430 nM

**Q.** Which Ki does the source give for `Cc1c(-c2ccccc2F)nc2cccc(Cl)c2c1N1CC(C)(C)c2ccc(N3CCOCC3)cc21` [5-chloro-4-(3,3-dimethyl-6-(4-morpholinyl)-2,3-dihydro-1H-indol-1-yl)-2-(2-fluorophenyl)-3-methylquinoline] here?
**A.** 890 nM

**Q.** `Cc1c(-c2ccccn2)nc2cc(F)ccc2c1N1CC2(CCOCC2)c2nc(Cl)c(N3CCOCC3)cc21` [5′-chloro-1′-(7-fluoro-3-methyl-2-(2-pyridinyl)-4-quinolinyl)-6′-(4-morpholinyl)-1′,2,2′,3,5,6-hexahydrospiro[pyran-4,3′-pyrrolo[3,2-b]pyridine]] was tested. Which Ki did it give?
**A.** 13.3 nM

**Q.** `Cc1c(-c2cccc(=O)[nH]2)nc2cc(F)ccc2c1N1CC(C)(C)c2ncc(N3CCOCC3)cc21` [6-(4-(3,3-dimethyl-6-(4-morpholinyl)-2,3-dihydro-1H-pyrrolo[3,2-b]pyridin-1-yl)-7-fluoro-3-methyl-2-quinolinyl)-2(1H)-pyridinone] was tested. Which Ki did it give?
**A.** 14.7 nM

**Q.** With `Cc1nc2c(C)cccc2c(N2CC3(CCOCC3)c3ccc(N4CCOCC4)cc32)c1C` [6-(4-morpholinyl)-1-(2,3,8-trimethyl-4-quinolinyl)-1,2,2′,3′,5′,6′-hexahydrospiro[indole-3,4′-pyran]] as the compound, how does the Ki read?
**A.** 121 nM
